Data taken from patent US10526337B2, “Heteroaryl derivative or pharmaceutically acceptable salt thereof, preparation method therefor, and pharmaceutical composition for preventing or treating diseases associated with PI3 kinases, containing same as active ingredient” (KOREA RESEARCH INSTITUTE OF CHEMICAL TECHNOLOGY, priority 2015, dated 2020).

Tests used:
Settings in all cases: ATP=10 uM, sample concentration=100 nM
[1] = target: T1, PI3 Kinase (p110α/p85α) (h) (Homo sapiens, UniProt P42336); test: Inhibition of phosphatidylinositol 3-kinase alpha (PI3K α), pAkt Western blotting in EGF-stimulated MDA-MB-453 cells; assay type: cell-based
T1 construct: endogenous in cells; host or cells: MDA-MB-453
Description: The inhibition of phosphatidylinositol 3 kinase alpha (PI3K α) by those compounds prepared in Examples 1˜98 was investigated by the following experiment. The inhibition activity of each compound was measured in the following conditions: ATP=10 uM, and sample concentration=100 nM.
Human breast cancer cells (MDA-MB-453) cultured in DMEM (Dulbecco's Modified Eagle Medium, Hyclon, SH30243.01) supplemented with 10% fetal bovine serum (Hyclon, USA) were distributed in a 12-well plate at the density of 1,000,000 cells/well. The cells were stabilized in a 37° C. CO2 for 24 hours and then treated with each compound for 1 and half hours. The cells were treated with 10 ng/mL of EGF (Epidermal Growth Factor, 10 μg/mL; R&D, 2150-C5) to increase the intracellular activity of PI3K alpha. 5 minutes later, the medium was discarded and the cells were washed with cold PBS (phosphate buffered saline, Gibco, 14190-250). PBS was then eliminated completely by using a pipette. Western blotting was performed as described in step 2 to evaluate the intracellular PI3K alpha activity.
(§1) The stimulated cells were transferred in a 1.5 mL tube, followed by centrifugation at 3000 rpm for 1 minute. 100 μL of RIPA buffer (radioimmunoprecipitation assay buffer, 50 mM Tris-HCl, 5 mM EDTA, 150 mM NaCl, 1% NP-40, 1 mM PMSF, pH 8.0; ELPIS, Korea) was added thereto, which was stored in a 4° C. refrigerator for 12 hours. Centrifugation was performed at 4° C. at 14,000 rpm for 20 minutes. The supernatant was transferred into a new 1.5 mL tube. Protein was quantified by BCA (bicinchoninic acid) method and samples were prepared. The composition of the sample was as follows: sample buffer (ELPIS, EBA-1052) 5×, protein 10 μg, and 1× sample buffer to make the total volume 20 μL. The sample was heated at 100° C. for 5 minutes. The evaporated water vapor was condensed in a refrigerator. The liquid stained on the wall was fallen down by centrifugation for a few seconds. The sample proceeded to 10% SDS (Sodium Dodecyl Sulfate) acrylamide gel for separation. The separated protein was transferred onto PVDF (poly-vinyl difluoride) membrane, followed by reaction with pAkt (phospho protein kinase B) antibody (Ser473 or Thr308; Cell signaling, 9271s or 13038s) for 12 hours at 4° C. The membrane was washed with TBST (Tris-Buffered Saline with Tween 20, 10 mM Tris-HCl, pH 7.5, 150 mM NaCl, 0.1% Tween-20) three times for 5 minutes each, to which the secondary antibody (rabbit antibody, Santacruz, sc-2004) was added, followed by reaction at room temperature for 2 hours. The membrane was washed with TBST three times for 10 minutes each, to which ECL (enhanced chemiluminescence, Thermo, NCI34095KR) was sprayed. Bands were investigated by using LAS-3000.

[2] = target: T2, PI3 Kinase (p110β/p86α) (h) (Homo sapiens, UniProt P42338); test: Inhibition of phosphatidylinositol 3-kinase beta (PI3K β), pAkt Western blotting in LPA-stimulated PC3 cells; assay type: cell-based
T2 construct: endogenous in cells; host or cells: PC3
T2 sequence (P42338 whole entry): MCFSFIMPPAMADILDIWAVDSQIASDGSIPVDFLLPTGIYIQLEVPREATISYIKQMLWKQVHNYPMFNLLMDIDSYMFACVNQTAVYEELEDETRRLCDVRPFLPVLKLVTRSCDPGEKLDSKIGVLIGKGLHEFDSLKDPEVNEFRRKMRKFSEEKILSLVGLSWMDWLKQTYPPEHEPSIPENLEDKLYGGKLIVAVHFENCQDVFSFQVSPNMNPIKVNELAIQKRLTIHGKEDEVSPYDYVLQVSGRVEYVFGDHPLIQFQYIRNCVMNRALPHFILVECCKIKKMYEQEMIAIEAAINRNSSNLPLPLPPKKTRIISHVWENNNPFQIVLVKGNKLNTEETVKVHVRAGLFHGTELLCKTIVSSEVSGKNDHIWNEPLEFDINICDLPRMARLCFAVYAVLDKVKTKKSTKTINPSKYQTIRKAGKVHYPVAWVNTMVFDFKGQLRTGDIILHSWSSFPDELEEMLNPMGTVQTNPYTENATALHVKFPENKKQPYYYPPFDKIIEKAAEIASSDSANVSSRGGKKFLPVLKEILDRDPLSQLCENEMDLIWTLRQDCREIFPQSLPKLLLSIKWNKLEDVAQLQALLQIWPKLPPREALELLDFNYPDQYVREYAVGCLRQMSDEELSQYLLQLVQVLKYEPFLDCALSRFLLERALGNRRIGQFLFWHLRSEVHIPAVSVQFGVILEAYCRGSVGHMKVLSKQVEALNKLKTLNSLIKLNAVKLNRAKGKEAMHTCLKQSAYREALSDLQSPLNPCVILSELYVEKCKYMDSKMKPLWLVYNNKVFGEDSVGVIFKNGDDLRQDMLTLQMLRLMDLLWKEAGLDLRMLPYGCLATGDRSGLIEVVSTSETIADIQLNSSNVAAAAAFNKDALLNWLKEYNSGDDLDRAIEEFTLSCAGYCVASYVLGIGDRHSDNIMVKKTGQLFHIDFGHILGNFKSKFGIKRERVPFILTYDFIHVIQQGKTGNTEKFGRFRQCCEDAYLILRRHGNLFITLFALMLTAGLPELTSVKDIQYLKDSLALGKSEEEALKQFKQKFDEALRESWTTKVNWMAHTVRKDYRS
T2 sequence (P27986 whole entry partner): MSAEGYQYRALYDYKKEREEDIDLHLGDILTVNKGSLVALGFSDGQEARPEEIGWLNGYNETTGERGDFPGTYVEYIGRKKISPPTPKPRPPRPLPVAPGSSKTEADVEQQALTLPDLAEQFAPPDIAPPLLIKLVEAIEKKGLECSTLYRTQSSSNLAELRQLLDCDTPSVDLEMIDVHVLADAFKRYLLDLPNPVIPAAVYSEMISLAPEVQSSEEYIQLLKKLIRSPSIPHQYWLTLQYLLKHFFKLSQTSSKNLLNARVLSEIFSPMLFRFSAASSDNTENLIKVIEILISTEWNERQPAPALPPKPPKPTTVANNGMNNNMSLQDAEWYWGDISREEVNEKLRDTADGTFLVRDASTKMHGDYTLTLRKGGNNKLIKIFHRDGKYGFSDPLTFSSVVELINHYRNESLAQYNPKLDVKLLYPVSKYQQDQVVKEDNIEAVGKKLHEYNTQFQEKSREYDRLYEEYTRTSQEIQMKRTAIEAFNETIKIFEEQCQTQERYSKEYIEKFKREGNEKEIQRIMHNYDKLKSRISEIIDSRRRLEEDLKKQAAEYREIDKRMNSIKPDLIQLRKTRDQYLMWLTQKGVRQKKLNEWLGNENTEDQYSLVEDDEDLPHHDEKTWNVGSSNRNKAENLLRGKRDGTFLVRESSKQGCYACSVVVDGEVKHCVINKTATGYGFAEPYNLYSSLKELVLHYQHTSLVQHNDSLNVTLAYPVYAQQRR
Description: as §1
The inhibition of phosphatidylinositol 3 kinase beta (PI3K β) by those compounds prepared in Examples 1˜98 was investigated by the following experiment. The inhibition activity of each compound was measured in the following conditions: ATP=10 uM, and sample concentration=100 nM.
Human prostate cancer cells (PC3 cells) cultured in DMEM (Dulbecco's Modified Eagle Medium, Hyclon, SH30243.01) supplemented with 10% fetal bovine serum (Hyclon, USA) were distributed in a 12-well plate at the density of 1,000,000 cells/well. The cells were stabilized in a 37° C. CO2 for 24 hours and then treated with each compound for 1 and half hours. The cells were treated with 10 ng/mL of LPA (lysophosphatidic acid, 10 μg/mL; R&D, 2150-05) to increase the intracellular activity of PI3K beta. 5 minutes later, the medium was discarded and the cells were washed with cold PBS (phosphate buffered saline, Gibco, 14190-250). PBS was then eliminated completely by using a pipette. Western blotting was performed according to the same manner as described in step 2 of Experimental Example 1 to evaluate the intracellular PI3K beta activity.

PI3 Kinase (p120γ) (h) = target: T3, PI3 Kinase (p120γ) (h) (Homo sapiens, UniProt P48736); test: Inhibition of phosphatidylinositol 3-kinase gamma (PI3K γ), pAkt Western blotting in C5a-stimulated RAW264.7 macrophages; assay type: cell-based, mouse
T3 construct: endogenous in cells; host or cells: RAW264.7
T3 sequence (P48736 whole entry): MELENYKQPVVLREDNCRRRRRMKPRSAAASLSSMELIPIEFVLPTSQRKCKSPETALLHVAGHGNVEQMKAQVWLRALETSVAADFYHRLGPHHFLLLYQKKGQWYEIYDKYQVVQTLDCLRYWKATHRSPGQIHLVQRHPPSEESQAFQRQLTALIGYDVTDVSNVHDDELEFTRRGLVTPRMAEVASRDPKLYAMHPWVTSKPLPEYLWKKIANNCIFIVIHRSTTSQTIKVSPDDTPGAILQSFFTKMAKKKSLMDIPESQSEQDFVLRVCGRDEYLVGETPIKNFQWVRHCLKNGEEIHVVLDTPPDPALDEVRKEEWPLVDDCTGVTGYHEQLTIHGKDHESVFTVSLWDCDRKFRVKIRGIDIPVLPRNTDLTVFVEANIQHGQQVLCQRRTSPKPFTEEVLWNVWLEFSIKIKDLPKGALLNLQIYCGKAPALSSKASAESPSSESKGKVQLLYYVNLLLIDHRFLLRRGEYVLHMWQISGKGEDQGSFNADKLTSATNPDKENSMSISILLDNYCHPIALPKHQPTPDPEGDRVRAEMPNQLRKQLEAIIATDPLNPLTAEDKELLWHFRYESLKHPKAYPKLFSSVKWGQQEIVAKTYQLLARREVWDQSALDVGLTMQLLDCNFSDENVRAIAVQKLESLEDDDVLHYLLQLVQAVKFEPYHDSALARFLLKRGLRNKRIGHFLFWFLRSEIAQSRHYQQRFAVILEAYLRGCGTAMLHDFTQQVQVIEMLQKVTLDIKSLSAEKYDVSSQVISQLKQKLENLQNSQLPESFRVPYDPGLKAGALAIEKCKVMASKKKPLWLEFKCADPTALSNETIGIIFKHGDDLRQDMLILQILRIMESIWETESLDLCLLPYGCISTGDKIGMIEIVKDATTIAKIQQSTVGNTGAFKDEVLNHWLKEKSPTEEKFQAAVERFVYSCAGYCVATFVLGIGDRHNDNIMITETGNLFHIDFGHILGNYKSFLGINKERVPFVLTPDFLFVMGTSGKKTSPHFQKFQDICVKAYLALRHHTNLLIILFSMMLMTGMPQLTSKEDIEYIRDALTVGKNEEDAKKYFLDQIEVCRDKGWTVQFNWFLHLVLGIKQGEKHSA
Method in brief: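 Enzyme: PI3Kγ activity measured at ATP=10 uM with compound at 100 nM. Cellular: RAW264.7 macrophages treated with compound 1.5 h, then stimulated with 10 ng/mL C5a for 5 min; lysates (10 μg protein) probed by Western blot for pAkt (Ser473 or Thr308), ECL detection.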

[3] = target: T4, PI3 Kinase (p110δ/p85α) (h) (Homo sapiens, UniProt O00329); test: Inhibition of phosphatidylinositol 3-kinase delta (PI3K δ), pAkt Western blotting in IgM-stimulated Raji cells; assay type: cell-based
T4 construct: endogenous in cells; host or cells: Raji
T4 sequence (O00329 whole entry): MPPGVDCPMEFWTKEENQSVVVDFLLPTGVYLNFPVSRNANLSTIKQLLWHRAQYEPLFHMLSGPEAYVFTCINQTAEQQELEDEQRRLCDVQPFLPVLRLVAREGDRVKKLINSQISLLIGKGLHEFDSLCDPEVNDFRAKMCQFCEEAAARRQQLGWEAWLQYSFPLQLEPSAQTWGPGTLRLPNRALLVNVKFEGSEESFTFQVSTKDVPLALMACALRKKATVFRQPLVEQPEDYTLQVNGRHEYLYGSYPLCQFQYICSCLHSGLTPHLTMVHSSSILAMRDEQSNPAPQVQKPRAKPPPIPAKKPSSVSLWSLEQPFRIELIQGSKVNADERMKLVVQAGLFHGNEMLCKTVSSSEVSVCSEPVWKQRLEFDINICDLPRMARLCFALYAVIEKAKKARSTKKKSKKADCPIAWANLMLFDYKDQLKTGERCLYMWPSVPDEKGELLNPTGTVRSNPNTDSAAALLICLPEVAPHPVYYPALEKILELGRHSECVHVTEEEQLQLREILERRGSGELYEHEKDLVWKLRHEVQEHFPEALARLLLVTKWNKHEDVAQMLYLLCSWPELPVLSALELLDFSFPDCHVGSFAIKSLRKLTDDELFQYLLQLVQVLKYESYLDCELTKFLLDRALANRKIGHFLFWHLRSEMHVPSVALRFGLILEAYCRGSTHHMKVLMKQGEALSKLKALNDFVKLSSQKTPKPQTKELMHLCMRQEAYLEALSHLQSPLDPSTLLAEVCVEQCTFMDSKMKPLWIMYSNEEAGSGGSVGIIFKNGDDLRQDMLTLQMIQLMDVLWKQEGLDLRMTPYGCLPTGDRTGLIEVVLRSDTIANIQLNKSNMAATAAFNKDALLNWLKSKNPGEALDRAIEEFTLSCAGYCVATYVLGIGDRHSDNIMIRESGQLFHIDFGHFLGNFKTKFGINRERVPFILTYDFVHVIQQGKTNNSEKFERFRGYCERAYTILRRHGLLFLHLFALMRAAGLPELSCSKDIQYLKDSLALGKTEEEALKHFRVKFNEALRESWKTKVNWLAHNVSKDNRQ
T4 sequence (P27986 whole entry partner): as the sequence (P27986 whole entry partner) above
Method in brief: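 Raji cells were treated with compound for 1.5 h, then stimulated with 0.25 μg/mL IgM for 30 min to activate PI3Kδ. Lysates were Western blotted for pAkt (Ser473 or Thr308) with ECL detection. Conditions stated: ATP=10 uM, sample concentration=100 nM.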

Structure (SMILES) | IC50 [1] | IC50 [2] | IC50 (PI3 Kinase (p120γ) (h)) | IC50 [3]
C[C@H](Nc1nc(N)nc2[nH]cnc(=O)c12)c1nc2cccc(Cl)c2c(=O)n1-c1cccc(F)c1 [Example 83, (S)-7-amino-5-((1-(5-chloro-3-(3-fluorophenyl)-4-oxo-3,4-dihydroquinazoline-2-yl)ethyl)amino)pyrimido[4,5-d]pyrimidine-4(1H)-one] |  |  | > 0.5 µM | > 0.5 µM
Nc1nc(N2CCC[C@H]2c2nc3cccc(Cl)c3c(=O)n2-c2ccccc2)c2c(=O)nc[nH]c2n1 [Example 90, (S)-7-amino-5-(2-(5-chloro-4-oxo-3-phenyl-3,4-dihydroquinazoline-2-yl)pyrrolidine-1-yl)pyrimido[4,5-d]pyrimidine-4(1H)-one] |  |  | > 0.5 µM | > 0.5 µM
Nc1nc(N2CCC[C@H]2c2nc3cccc(Cl)c3c(=O)n2-c2cccnc2)c2c(=O)nc[nH]c2n1 [Example 91, (S)-7-amino-5-(2-(5-chloro-4-oxo-3-(pyridine-3-yl)-3,4-dihydroquinazoline-2-yl)pyrrolidine-1-yl)pyrimido[4,5-d]pyrimidine-4(1H)-one] |  |  | > 0.5 µM | > 0.5 µM
Nc1nc(N2CCC[C@H]2c2nc3cccc(Cl)c3c(=O)n2-c2cccc(F)c2)c2c(=O)nc[nH]c2n1 [Example 92, (S)-7-amino-5-(2-(5-chloro-3-(3-fluorophenyl)-4-oxo-3,4-dihydroquinazoline-2-yl)pyrrolidine-1-yl)pyrimido[4,5-d]pyrimidine-4(1H)-one] |  |  | > 0.5 µM | > 0.5 µM
Cc1cccc(-n2c([C@@H]3CCCN3c3nc(N)nc4[nH]cnc(=O)c34)nc3cccc(Cl)c3c2=O)c1 [Example 93, (S)-7-amino-5-(2-(5-chloro-4-oxo-3-(m-tolyl)-3,4-dihydroquinazoline-2-yl)pyrrolidine-1-yl)pyrimido[4,5-d]pyrimidine-4(1H)-one] |  |  | > 0.5 µM | > 0.5 µM
Nc1nc(N2CCC[C@H]2c2cc3cccc(Cl)c3c(=O)n2-c2ccccc2)c2c(=O)nc[nH]c2n1 [Example 94, (S)-7-amino-5-(2-(8-chloro-1-oxo-2-phenyl-1,2-dihydroisoquinoline-3-yl)pyrrolidine-1-yl)pyrimido[4,5-d]pyrimidine-4(1H)-one] |  |  | 0.01 to 0.5 µM | 0.01 to 0.5 µM
Nc1nc(N2CCC[C@H]2c2nn3ccc(Cl)c3c(=O)n2-c2cccc(F)c2)c2c(=O)nc[nH]c2n1 [Example 96, (S)-7-amino-5-(2-(5-chloro-3-(3-fluorophenyl)-4-oxo-3,4-dihydropyrrolo[2,1-f][1,2,4]triazine-2-yl)pyrrolidine-1-yl)pyrimido[4,5-d]pyrimidine-4(1H)-one] |  |  | > 0.5 µM | > 0.5 µM
C[C@H](Nc1ncnc2c1C(=O)CCN2)c1cc2cccc(Cl)c2c(=O)n1-c1ccccc1 [Example 97, (S)-4-((1-(8-chloro-1-oxo-2-phenyl-1,2-dihydroisoquinoline-3-yl)ethyl)amino)-7,8-dihydropyrido[2,3-d]pyrimidine-5(6H)-one] |  |  | 0.01 to 0.5 µM | < 0.01 µM

Further lines, results first:

IC50 [1] | IC50 [2] | IC50 (PI3 Kinase (p120γ) (h)) | IC50 [3] | Structure (SMILES)
> 0.5 µM | 0.01 to 0.5 µM | 0.01 to 0.5 µM | < 0.01 µM | C[C@H](Nc1ncnc2[nH]ccc(=O)c12)c1nc2cccc(Cl)c2c(=O)n1-c1ccccc1 [Example 1, (S)-4-((1-(5-chloro-4-oxo-3-phenyl-3,4-dihydroquinazoline-2-yl)ethyl)amino)pyrido[2,3-d]pyrimidine-5(8H)-one]
> 0.5 µM | > 0.5 µM | 0.01 to 0.5 µM | < 0.01 µM | C[C@H](Nc1ncnc2[nH]ccc(=O)c12)c1nc2cccc(Cl)c2c(=O)n1-c1cccnc1 [Example 2, (S)-4-((1-(5-chloro-4-oxo-3-(pyridine-3-yl)-3,4-dihydroquinazoline-2-yl)ethyl)amino)pyrido[2,3-d]pyrimidine-5(8H)-one]
> 0.5 µM | > 0.5 µM | 0.01 to 0.5 µM | < 0.01 µM | C[C@H](Nc1ncnc2[nH]ccc(=O)c12)c1nc2cccc(Cl)c2c(=O)n1-c1ccccn1 [Example 3, (S)-4-((1-(5-chloro-4-oxo-3-(pyridine-2-yl)-3,4-dihydroquinazoline-2-yl)ethyl)amino)pyrido[2,3-d]pyrimidine-5(8H)-one]
> 0.5 µM | > 0.5 µM | 0.01 to 0.5 µM | < 0.01 µM | C[C@H](Nc1ncnc2[nH]ccc(=O)c12)c1nc2cccc(Cl)c2c(=O)n1-c1cc(F)cc(F)c1 [Example 4, (S)-4-((1-(5-chloro-3-(3,5-difluorophenyl)-4-oxo-3,4-dihydroquinazoline-2-yl)ethyl)amino)pyrido[2,3-d]pyrimidine-5(8H)-one]
 |  | 0.01 to 0.5 µM | 0.01 to 0.5 µM | C[C@H](Nc1nc(N)nc2[nH]cnc(=O)c12)c1nc2cccc(Cl)c2c(=O)n1-c1ccccc1 [Example 81, (S)-7-amino-5-((1-(5-chloro-4-oxo-3-phenyl-3,4-dihydroquinazoline-2-yl)ethyl)amino)pyrimido[4,5-d]pyrimidine-4(1H)-one]
 |  | 0.01 to 0.5 µM | 0.01 to 0.5 µM | C[C@H](Nc1nc(N)nc2[nH]cnc(=O)c12)c1nc2cccc(Cl)c2c(=O)n1-c1cccnc1 [Example 82, (S)-7-amino-5-((1-(5-chloro-4-oxo-3-(pyridine-3-yl)-3,4-dihydroquinazoline-2-yl)ethyl)amino)pyrimido[4,5-d]pyrimidine-4(1H)-one]
 |  | 0.01 to 0.5 µM | 0.01 to 0.5 µM | Cc1cccc(-n2c([C@H](C)Nc3nc(N)nc4[nH]cnc(=O)c34)nc3cccc(Cl)c3c2=O)c1 [Example 84, (S)-7-amino-5-((1-(5-chloro-4-oxo-3-(m-tolyl)-3,4-dihydroquinazoline-2-yl)ethyl)amino)pyrimido[4,5-d]pyrimidine-4(1H)-one]
 |  | 0.01 to 0.5 µM | 0.01 to 0.5 µM | C[C@H](Nc1nc(N)nc2[nH]cnc(=O)c12)c1nn2ccc(Cl)c2c(=O)n1-c1ccccc1 [Example 86, (S)-7-amino-5-((1-(5-chloro-4-oxo-3-phenyl-3,4-dihydropyrrolo[2,1-f][1,2,4]triazine-2-yl)ethyl)amino)pyrimido[4,5-d]pyrimidine-4(1H)-one]
 |  | 0.01 to 0.5 µM | < 0.01 µM | C[C@H](Nc1nc(N)nc2[nH]cnc(=O)c12)c1nn2ccc(Cl)c2c(=O)n1-c1cccc(F)c1 [Example 87, (S)-7-amino-5-((1-(5-chloro-3-(3-fluorophenyl)-4-oxo-3,4-dihydropyrrolo[2,1-f][1,2,4]triazine-2-yl)ethyl)amino)pyrimido[4,5-d]pyrimidine-4(1H)-one]
 |  | 0.01 to 0.5 µM | 0.01 to 0.5 µM | CC[C@H](Nc1nc(N)nc2[nH]cnc(=O)c12)c1nc2cccc(F)c2c(=O)n1-c1ccccc1 [Example 89, (S)-7-amino-5-((1-(5-fluoro-4-oxo-3-phenyl-3,4-dihydroquinazoline-2-yl)propyl)amino)pyrimido[4,5-d]pyrimidine-4(1H)-one]
